From patent publication US4256753A, “4-(2-Pyridylamino)phenylacetic acid derivatives” (Dainippon Pharmaceutical Co., Ltd., priority 1978, dated 1981)
Like-named read-outs stand apart in the source and are kept apart here.

Legend:
[1] = system: Phenylquinone-induced writhing; test: Phenylquinone-induced writhing in mice (PQW method); format: in vivo; settings: Mus musculus, po, read-out: Analgesic ED50, PQW
Procedure: (a) Phenylquinone-induced writhing in mice (PQW method)
The test was carried out according to the method described in Proc. Soc. Exp. Biol. Med., 95, 729 (1957).

[2] = system: Acetic acid-induced writhing; test: Acetic acid-induced writhing in rats (ACWR method); format: in vivo; settings: Rattus norvegicus, po, read-out: Analgesic ED50, ACWR
Procedure: (b) Acetic acid-induced writhing in rats (ACWR method)
The test was carried out according to the method described in Arzneim. Forsch., 25, 1505 (1975).

[3] = system: Carrageenin-induced hind paw edema; test: Carrageenin-induced hind paw edema in rats (CAR method); format: in vivo; settings: Rattus norvegicus, po, read-out: Anti-inflammatory ED50, CAR
Procedure: (a) Carrageenin-induced hind paw edema in rats (CAR method)
The test was carried out according to the method described in Proc. Soc. Exp. Biol. Med., 111, 544 (1962).

[4] = system: Acetic acid-induced vascular permeability; test: Acetic acid-induced vascular permeability in mice (CAP method); format: in vivo; settings: Mus musculus, po, read-out: Anti-inflammatory ED50, CAP
Procedure: (b) Acetic acid-induced vascular permeability in mice (CAP method)
The test was carried out according to the method described in Brit. J. Pharm. Chemother., 22, 246 (1964).

[5] = system: adjuvant-induced arthritis; test: Prophylactic effect on adjuvant-induced arthritis in rats; format: in vivo, female rats of JCL:SD strain; settings: for Arthritic incidence: 80 mg/kg/day p.o., days 0-20, vehicle control 100
in vivo = settings: mouse, po
Anti-allergic activity = settings: result in words, no test described
[6] = Gastrointestinal ulcerogenicity in fasted rats; settings: rat, in vivo, po
Procedure: The test was carried out using fasted rats according to the method described in Arzneim.

[7] = mice, acetic acid-induced vascular permeability

| SMILES | ED50 [1] [mg/kg] | ED50 [2] [mg/kg] | ED50 [3] [mg/kg] | ED50 [4, 7] [mg/kg] | Arthritic incidence [5] [%] | Arthritic index mean ± S.E., 22nd day ([5]; rat, in vivo) | Arthritic index mean ± S.E., 28th day ([5]; rat, in vivo) | LD50 at 168 h (in vivo) [mg/kg] | anti-allergic activity (Anti-allergic activity) | TD50 [6] [mg/kg] | selectivity ratio ([6]; rats, p.o., UD50 divided by ED50 of CAR method, read-out: Safety index, ratio of UD50/ED50 (CAR method)) | ED50 [4] [mg/kg] |
| --- | --- | --- | --- | --- | --- | --- | --- | --- | --- | --- | --- | --- |
| CC(C(=O)O)c1ccc(N(C)c2ccccn2)cc1 (centres unmarked) [Compound 2, 2-[4-[N-Methyl-N-(2'-pyridyl)amino]phenyl]propionic acid] | > 100 | 20 | 40 | > 20 |  |  |  |  |  |  |  |  |
| CC(C(=O)O)c1ccc(Nc2ccccn2)cc1 (centres unmarked) [Compound A, 2-[4-(2'-Pyridylamino)phenyl]propionic acid] | 7.33 | 1.36 | 10 | 0.88 | 0 | 1.3 ± 0.8 | 1.3 ± 0.6 | 1910 | shows an anti-allergic activity | > 640 | > 64 |  |
| CC(C)Cc1ccc(C(C)C(=O)O)cc1 (centres unmarked) [Compound 1, 2-(4-isobutylphenyl)propionic acid, reference compound] | 50 | 9.43 |  |  | 85.7 |  |  |  | does not show such an activity | 125 |  | 7.11 |
| CC(C(=O)O)c1ccc(Nc2ccccn2)c(Cl)c1 (centres unmarked) [B, 2-[3-Chloro-4-(2'-pyridylamino)phenyl]propionic acid] | 8.62 | 1.8 | 13.1 | 3.18 |  |  |  |  |  |  |  |  |
| CC(C(=O)O)c1ccc(Oc2ccccn2)cc1 (centres unmarked) [Compound 3, 2-[4-(2'-Pyridyloxy)phenyl]propionic acid] | 80 | 5.51 | 20 | 6.74 |  |  |  |  |  |  |  |  |
